Where a SMILES comes first, the peptide text is derived from it. [ ]: non-standard residue; d: D form. pS = N[C@@H](COP(=O)(O)O)C(=O)O
Legend:
14-3-3ε [1] = molecular target: T1, 14-3-3ε (Homo sapiens, UniProt P62258); experiment: Surface plasmon resonance (SPR), steady-state affinity on immobilized His6-14-3-3ε; type: binding
T1 construct: purchased Novus Biologicals
T1 sequence (P62258 1-255): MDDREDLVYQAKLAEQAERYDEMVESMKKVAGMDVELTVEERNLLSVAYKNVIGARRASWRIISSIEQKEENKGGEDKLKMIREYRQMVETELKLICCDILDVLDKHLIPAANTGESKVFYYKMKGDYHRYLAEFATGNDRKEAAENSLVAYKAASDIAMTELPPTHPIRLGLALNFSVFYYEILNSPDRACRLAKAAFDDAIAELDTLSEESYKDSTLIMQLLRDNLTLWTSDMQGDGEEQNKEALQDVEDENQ
Procedure: (§1) The binding of the peptides to 14-3-3ε was further assessed using differential scanning fluorometry (DSF) and surface plasmon resonance (SPR) measurements. DSF was used to determine the effects of the peptides on the melting temperature (Tm) of 14-3-3ε (Table 4, Figure 6 and Figure S4). The pS peptide caused an increase in melting temperature (ΔTm) of 0.35 ± 0.16 °C, while pS(174–182) induced no ΔTm. The Phe and Tyr substitutions in position 176 led to ΔTm of 1.08 ± 0.34 °C and 1.10 ± 0.32 °C, respectively. Lys, Phe, and Tyr substitutions in position 179 led to ΔTm of between 0.00 and 0.23 °C (Table 4). To quantitatively determine the affinity of the peptides for 14-3-3ε protein using SPR, His-tagged protein was immobilized on a nitrilotriacetic acid (Ni-NTA) sensor chip, and then binding of the peptides analogs to the protein was determined.
The SPR analyses were carried out using the Biacore 8K surface plasmon resonance instrument (Cytiva, Marlborough, MA, USA). A total of 100 nM His6-14-3-3ε was immobilized on the NiCl2-activated NTA chip (Cytiva, Marlborough, MA, USA) as previously described. Then, different concentrations of peptide in the range of 0−500 μM (depending on the peptide) were injected. The experiments were performed in 20 mM TRIS, 150 mM NaCl, 50 μM EDTA, 0.005% Tween 20, and pH 7.4 buffer. The affinities of the peptides binding to 14-3-3ε were determined by fitting the data to a steady-state binding model using Biacore Insight Evaluation Software (version 5.0.18.22102).

14-3-3ε [2] = molecular target: T1, 14-3-3ε; experiment: Differential scanning fluorimetry (DSF), melting temperature shift of 14-3-3ε; type: binding; details: 30 μM peptide, 2 µM 14-3-3ε, SYPRO-orange, 20 mM TRIS, 150 mM NaCl, 1 mM DTT, pH 7.4, average ± SD of n ≥ 5
Procedure: as §1
Thermal unfolding of 14-3-3ε (2 µM) and its complex with peptides (30 μM) was monitored in the presence of a hydrophobic protein-binding dye, SYPRO-orange (Invitrogen, Carlsbad, CA, USA), using the BioRad CFX384 Touchreal-time PCR (Hercules, CA, USA). The assays were performed in 20 mM TRIS, 150 mM NaCl, 1 mM DTT, and pH 7.4 buffer. The first derivative of the melting curves was plotted using GraphPad Prism software, version 10.0.3 to determine Tm of the protein. ΔTm was determined as the difference between Tm of 14-3-3ε in the presence of a peptide and Tm of 14-3-3ε alone.

cSCC cells = details: read-out: IC50, death of cSCC cells; cited from earlier work

| Compound | ΔG ± SD (free energy of binding derived from KD) (14-3-3ε [1]) | ΔTm (melting temperature shift of 14-3-3ε) (14-3-3ε [2]) | IC50 (cSCC cells) |
| --- | --- | --- | --- |
| CC(=O)N[C@@H](CCC(N)=O)C(=O)N[C@@H](CCCNC(=N)N)C(=O)N[C@@H](CCC(N)=O)C(=O)N[C@@H](CC(N)=O)C(=O)N[C@@H](COP(=O)(O)O)C(=O)N[C@@H](Cc1ccccc1)C(=O)N1CCC[C@H]1C(=O)N[C@@H](C)C(=O)N[C@@H](CCCNC(=N)N)C(N)=O [[Phe^179]pS(174–182)] (Ac-QRQN[pS]FPAR-NH2) | -24.15 ± 0.2 kJ/mol | 0 °C | – |
| CC(=O)N[C@@H](CCC(N)=O)C(=O)N[C@@H](CCCNC(=N)N)C(=O)N[C@@H](Cc1ccc(O)cc1)C(=O)N[C@@H](CC(N)=O)C(=O)N[C@@H](COP(=O)(O)O)C(=O)N[C@@H](C)C(=O)N1CCC[C@H]1C(=O)N[C@@H](C)C(=O)N[C@@H](CCCNC(=N)N)C(N)=O [[Tyr^176]pS(174–182)] (Ac-QRYN[pS]APAR-NH2) | -36.76 ± 0.46 kJ/mol | 1.10 ± 0.32 °C | – |
| CC(=O)N[C@@H](CCC(N)=O)C(=O)N[C@@H](CCCNC(=N)N)C(=O)N[C@@H](CCC(N)=O)C(=O)N[C@@H](CC(N)=O)C(=O)N[C@@H](COP(=O)(O)O)C(=O)N[C@@H](Cc1ccc(O)cc1)C(=O)N1CCC[C@H]1C(=O)N[C@@H](C)C(=O)N[C@@H](CCCNC(=N)N)C(N)=O [[Tyr^179]pS(174–182)] (Ac-QRQN[pS]YPAR-NH2) | -22.47 ± 0.39 kJ/mol | 0 °C | – |
| CSCC[C@H](NC(=O)[C@H](CCCNC(=N)N)NC(=O)[C@H](C)NC(=O)[C@@H]1CCCN1C(=O)[C@H](C)NC(=O)[C@H](COP(=O)(O)O)NC(=O)[C@H](CC(N)=O)NC(=O)[C@H](CCC(N)=O)NC(=O)[C@H](CCCNC(=N)N)NC(=O)[C@H](CCC(N)=O)NC(=O)[C@@H](NC(C)=O)[C@@H](C)O)C(=O)N[C@@H](CC(C)C)C(=O)N[C@@H](CO)C(=O)N[C@@H](CO)C(N)=O [pS] (Ac-TQRQN[pS]APARMLSS-NH2) | -37.96 ± 0.09 kJ/mol | 0.35 ± 0.16 °C | 29 µM |

Second part, led by results:

| ΔG ± SD (free energy of binding derived from KD) (14-3-3ε [1]) | ΔTm (melting temperature shift of 14-3-3ε) (14-3-3ε [2]) | Compound | IC50 (cSCC cells) |
| --- | --- | --- | --- |
| -30.12 ± 0.23 kJ/mol | 0.23 ± 0.09 °C | CC(=O)N[C@@H](CCC(N)=O)C(=O)N[C@@H](CCCNC(=N)N)C(=O)N[C@@H](CCC(N)=O)C(=O)N[C@@H](CCCCN)C(=O)N[C@@H](COP(=O)(O)O)C(=O)N[C@@H](C)C(=O)N1CCC[C@H]1C(=O)N[C@@H](C)C(=O)N[C@@H](CCCNC(=N)N)C(N)=O [[Lys^177]pS(174–182)] (Ac-QRQK[pS]APAR-NH2) | – |
| – | 1.08 ± 0.34 °C | CC(=O)N[C@@H](CCC(N)=O)C(=O)N[C@@H](CCCNC(=N)N)C(=O)N[C@@H](Cc1ccccc1)C(=O)N[C@@H](CC(N)=O)C(=O)N[C@@H](COP(=O)(O)O)C(=O)N[C@@H](C)C(=O)N1CCC[C@H]1C(=O)N[C@@H](C)C(=O)N[C@@H](CCCNC(=N)N)C(N)=O [[Phe^176]pS(174–182)] (Ac-QRFN[pS]APAR-NH2) | – |
| -28.76 ± 0.23 kJ/mol | – | CC(=O)N[C@@H](CCC(N)=O)C(=O)N[C@@H](CCCNC(=N)N)C(=O)N[C@@H](CCC(N)=O)C(=O)N[C@@H](CC(N)=O)C(=O)N[C@@H](COP(=O)(O)O)C(=O)N[C@@H](C)C(=O)N1CCC[C@H]1C(=O)N[C@@H](C)C(=O)N[C@@H](CCCNC(=N)N)C(N)=O [pS(174–182)] (Ac-QRQN[pS]APAR-NH2) | – |
